Source: patent publication US10905675B2, “Use of carbamate compound for prevention, alleviation or treatment of pruritus” (SK BIOPHARMACEUTICALS CO., LTD., priority 2016, dated 2021)

Assays:
[1] = system: acute pruritus induced by intradermal administration of serotonin; experiment: Acute pruritus animal model induced by intradermal administration of serotonin (scratching reactions); type: in vivo, rats (Sprague-Dawley); settings: rats; for inhibition of acute pruritus (number of scratching reactions) compared to the control group: 1 hour before intradermal serotonin, scratching counted for 30 minutes
Procedure: Mature male rats (Sprague-Dawley, 200 to 230 g) were used. The experimental animals were maintained at a light-and-darkness cycle of 12 hours (illuminated from 7 pm to 7 am), a temperature of 22 to 25° C., a relative humidity of 40 to 60%, and free access to water and food. The animals were randomly divided into three groups as follows: • Eight (8) rats as a control group, orally administered with 30% PEG400 as a vehicle at a dose of 5 ml/kg • Eight (8) rats, orally administered with the test compound at a dose of 10 mg/kg (5 ml/kg) • Eight (8) rats, orally administered with the test compound at a dose of 30 mg/kg (5 ml/kg)
On the day before the experiment, the skin fur on the right scapula of the rats was shaved to an area of about 2 cm square. On the day of the experiment, serotonin hydrochloride was dissolved in 0.9% physiological saline at a concentration of 4 mg/ml. The rats were placed in an acrylic box (20×30×20 cm) and adapted for 15 minutes in a quiet area, followed by intradermal administration of the dissolved serotonin in 50 μl per rat on the shaved area (Thomsen et al, Scratch induction in the rat by intradermal serotonin: a model for pruritus, Acta Derm Venereol, 2001).
Only when the rats scratched body parts within 5 cm square around the skin area where serotonin was administered, it was judged to be a valid scratching reaction.
The test compound was orally administered to the rats at a dose of 10 mg/kg (5 ml/kg) and 30 mg/kg (5 ml/kg) 1 hour before intradermal administration of serotonin.

[2] = system: chronic pruritus induced by administration of capsaicin immediately after birth; experiment: Chronic pruritus animal model induced by subcutaneous administration of capsaicin immediately after birth (scratching reactions); type: in vivo, rats (Sprague-Dawley); settings: rats, oral 30 mg/kg, 1 hour before measurement, third week after capsaicin, scratching counted for 1 hour
Procedure: Baby rats within 48 hours after birth (Sprague-Dawley, 7 to 10 g) were obtained together with the mother rats, and were used. The experimental animals were maintained at a light-and-darkness cycle of 12 hours (illuminated from 7 pm to 7 am), a temperature of 22 to 25° C., a relative humidity of 40 to 60%, and free access to water and food. Until the 21st day after birth, the baby rats were bred together with the mother rats and allowed to drink the mother's milk. After the 21st day, the baby rats were kept off the milk and separated from the mother rats. The animals were randomly divided into two groups as follows: • Seven (7) rats as a control group, orally administered with 30% PEG400 as a vehicle at a dose of 5 ml/kg • Seven (7) rats, orally administered with the test compound at a dose of 30 mg/kg (5 ml/kg) […]
On the third week after capsaicin administration, the animals were placed in an acrylic box (20×30×20 cm), adapted for 30 minutes in a quiet area, and then observed for the number of scratching behaviors for 1 hour. One continuous scratching reaction was counted as one scratching reaction. […]

Compound: NC(=O)O[C@@H](Cn1ncnn1)c1ccccc1Cl [the test compound]
- dose dependence of the reduction of itching responses ([1]; oral 10 mg/kg and 30 mg/kg): dose-dependent
- inhibition of acute pruritus (number of scratching reactions) compared to the control group ([1]; oral 10 mg/kg): statistically significantly inhibited
- inhibition of acute pruritus (number of scratching reactions) compared to the control group ([1]; oral 30 mg/kg): statistically significantly inhibited
- inhibition of chronic pruritus (number of scratching reactions) compared to the control group [2]: statistically significantly inhibited
